Experiments:
[1] = Positive allosteric modulator activity at human CB2R expressed in CHO-K1 cell membrane assessed as CP55940 EC50 for [35S]GTPgammaS binding at 1 nM measured after 90 mins by liquid scintillation counting analysis (Rvb = 1.9 nM)
[2] = Positive allosteric modulator activity at human CB2R expressed in CHO-K1 cell membrane assessed as CP55940 EC50 for [35S]GTPgammaS binding at 100 nM measured after 90 mins by liquid scintillation counting analysis (Rvb = 1.9 nM)

Row | EC50 [1] | EC50 [2] | Structure (SMILES)
1 | 3.4 nM | 7 nM | Cc1c(Br)cn(Cc2ccccc2F)c(=O)c1NC(=O)C1CCCCCC1
2 | 2.6 nM | 2.4 nM | Cc1c(Br)cn(Cc2ccccc2Cl)c(=O)c1NC(=O)C1CCCCCC1
